Source: PubChem BioAssay (NCI)
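Five concentrations, 48 hours, 96-well plates. Here, GI50 denotes the concentration required for 50% inhibition of growth. TGI: concentration producing complete growth inhibition.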

What was measured:
Test in all cases: inhibition of tumour cell growth, NCI panel, 48 h
[1] = system: 786-0 renal
[2] = system: A498 renal
[3] = system: A549 NSCLC
[4] = system: ACHN renal
[5] = system: BT-549 breast
[6] = system: CAKI-1 renal
[7] = system: CCRF-CEM leukemia
[8] = system: COLO 205 colon
[9] = system: DU-145 prostate
[10] = system: EKVX NSCLC
[11] = system: HCC-2998 colon
[12] = system: HCT-116 colon
[13] = system: HCT-15 colon
[14] = system: HL-60(TB) leukemia
[15] = system: HOP-62 NSCLC
[16] = system: HOP-92 NSCLC
[17] = system: HS 578T breast
[18] = system: HT29 colon
[19] = system: IGROV1 ovarian
[20] = system: K-562 leukemia
[21] = system: KM12 colon
[22] = system: LOX IMVI melanoma
[23] = system: M14 melanoma
[24] = system: MALME-3M melanoma
[25] = system: MCF7 breast
[26] = system: MDA-MB-231 breast
[27] = system: MDA-MB-435
[28] = system: MOLT-4 leukemia
[29] = system: NCI-H226 lung
[30] = system: NCI-H23 lung
[31] = system: NCI-H460 lung
[32] = system: NCI-H522 lung
[33] = system: NCI/ADR-RES ovarian
[34] = system: OVCAR-3 ovarian
[35] = system: OVCAR-4 ovarian
[36] = system: OVCAR-5 ovarian
[37] = system: OVCAR-8 ovarian
[38] = system: PC-3 prostate
[39] = system: RPMI-8226 leukemia
[40] = system: RXF 393 renal
[41] = system: SF-268 CNS
[42] = system: SF-295 CNS
[43] = system: SF-539 CNS
[44] = system: SK-MEL-2 melanoma
[45] = system: SK-MEL-28 melanoma
[46] = system: SK-MEL-5 melanoma
[47] = system: SK-OV-3 ovarian
[48] = system: SN12C renal
[49] = system: SNB-19 CNS
[50] = system: SNB-75 CNS
[51] = system: SR leukemia
[52] = system: SW-620 colon
[53] = system: T-47D breast
[54] = system: U251 CNS
[55] = system: UACC-257 melanoma
[56] = system: UACC-62 melanoma
[57] = system: UO-31 renal

## CC(C)(c1ccccc1)c1cc(O)c(C(C)(C)c2ccccc2)cc1O
[1]
  GI50: 2.67 µM
  TGI: 9.38 µM
[2]
  GI50: 2.16 µM
  TGI: 10.1 µM
[3]
  GI50: 2.77 µM
  TGI: 13.4 µM
[4]
  GI50: 2.7 µM
  TGI: 12.2 µM
[5]
  GI50: 1.57 µM
  TGI: 5.31 µM
[6]
  GI50: 1.71 µM
  TGI: 11.4 µM
[7]
  GI50: 3 µM
  TGI: 13.6 µM
[8]
  GI50: 1.66 µM
  TGI: 3.4 µM
[9]
  GI50: 3.83 µM
  TGI: 16.2 µM
[10]
  GI50: 1.94 µM
  TGI: 12.5 µM
[11]
  GI50: 2.98 µM
  TGI: 12.8 µM
[12]
  GI50: 1.35 µM
  TGI: 3.36 µM
[13]
  GI50: 2.35 µM
  TGI: 10.1 µM
[14]
  GI50: 1.84 µM
  TGI: 5.53 µM
[15]
  GI50: 3.06 µM
  TGI: 13.4 µM
[16]
  GI50: 1.75 µM
  TGI: 6.66 µM
[17]
  GI50: 3.19 µM
  TGI: 19.6 µM
[18]
  GI50: 1.64 µM
  TGI: 8.91 µM
[19]
  GI50: 2.7 µM
  TGI: 13.3 µM
[20]
  GI50: 1.85 µM
  TGI: 12.2 µM
[21]
  GI50: 1.96 µM
  TGI: 10.8 µM
[22]
  GI50: 1.54 µM
  TGI: 3.82 µM
[23]
  GI50: 1.82 µM
  TGI: 4.99 µM
[24]
  GI50: 2.32 µM
  TGI: 12.3 µM
[25]
  GI50: 2.1 µM
  TGI: 11.2 µM
[26]
  GI50: 1.43 µM
  TGI: 6.28 µM
[27]
  GI50: 1.43 µM
  TGI: 8.85 µM
[28]
  GI50: 1.72 µM
  TGI: 7.82 µM
[29]
  GI50: 1.09 µM
  TGI: 16 µM
[30]
  GI50: 2.27 µM
  TGI: 16.2 µM
[31]
  GI50: 2.23 µM
  TGI: 7.53 µM
[32]
  GI50: 3.67 µM
  TGI: 16.7 µM
[33]
  GI50: 2.7 µM
  TGI: 12.1 µM
[34]
  GI50: 2.53 µM
  TGI: 8 µM
[35]
  GI50: 1.26 µM
  TGI: 9.92 µM
[36]
  GI50: 2.63 µM
  TGI: 8.58 µM
[37]
  GI50: 3.75 µM
  TGI: 20.9 µM
[38]
  GI50: 1.96 µM
  TGI: 10.9 µM
[39]
  GI50: 1.37 µM
  TGI: 14.3 µM
[40]
  GI50: 1.83 µM
  TGI: 6.85 µM
[41]
  GI50: 2.99 µM
  TGI: 12.8 µM
[42]
  GI50: 1.33 µM
  TGI: 3.23 µM
[43]
  GI50: 2.73 µM
  TGI: 9.59 µM
[44]
  GI50: 2.96 µM
  TGI: 13.9 µM
[45]
  GI50: 2.81 µM
  TGI: 14 µM
[46]
  GI50: 1.02 µM
  TGI: 2.65 µM
[47]
  GI50: 3.55 µM
  TGI: 14.5 µM
[48]
  GI50: 2.46 µM
  TGI: 11.5 µM
[49]
  GI50: 2.91 µM
  TGI: 12.1 µM
[50]
  GI50: 1.51 µM
  TGI: 11.5 µM
[51]
  GI50: 3 µM
  TGI: 9.86 µM
[52]
  GI50: 2.77 µM
  TGI: 14.6 µM
[53]
  GI50: 1.81 µM
  TGI: 12.7 µM
[54]
  GI50: 2.14 µM
  TGI: 9.97 µM
[55]
  GI50: 2.1 µM
  TGI: 10.7 µM
[56]
  GI50: 1.71 µM
  TGI: 4.93 µM
[57]
  GI50: 2.1 µM
  TGI: 11.3 µM
